# What was measured:
# APEX2 (SEQ ID NO:1) = biological target: T1, APEX2 (SEQ ID NO:1) (Glycine max, UniProt Q43758, A134P/E112K/K14D/W41F); assay: Oxidation of DHT by APEX2, UV-Vis initial rates and kinetic parameters; assay type: biochemical; conditions: for Initial rate of oxidation of DHT by APEX2 (SEQ ID NO: 1) / Initial rate of oxidation of DHT by APEX2 (SEQ ID NO: 1) + SOD: PBS, 100 μM EDTA, first 100 s; for Initial rate of oxidation of DHT by APEX2 (SEQ ID NO: 1) + SOD: SOD 1 μM
# T1 sequence (Q43758 1-250 A134P/E112K/K14D/W41F): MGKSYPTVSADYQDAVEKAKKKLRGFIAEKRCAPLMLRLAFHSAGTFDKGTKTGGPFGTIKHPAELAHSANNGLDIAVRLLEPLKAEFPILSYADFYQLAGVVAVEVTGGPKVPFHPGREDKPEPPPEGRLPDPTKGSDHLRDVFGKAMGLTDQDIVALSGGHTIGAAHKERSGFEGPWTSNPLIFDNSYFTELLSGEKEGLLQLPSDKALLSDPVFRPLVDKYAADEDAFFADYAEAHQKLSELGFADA
# Description: UV-Vis and fluorescence measurements were conducted in quartz cuvettes. All reactions were conducted in phosphate buffered saline (PBS) containing 100 μM EDTA with a pH=7.4. The PBS was prepared by adding 25 mM phosphate salts (Na2HPO4 and NaH2PO4), 100 mM NaCl, 100 μM EDTA to DI water. EDTA was added to quench free metals that can oxidize DHT. The buffer was pH adjusted to 7.4 using 1 mM HCl and 1 mM NaOH. UV experiments were stirred at 25° C. in a temperature-controlled cuvette holder of the spectrophotometer. Solutions of 15 or 16 were prepared from methanol stock solutions.
# 15 or 16 (60 μM) from methanol stock solutions was added to PBS containing 100 μM EDTA. After 10s, APEX2 (SEQ ID NO:1) (275 nM) was dosed in and oxidation was monitored at 325 nm for 15 and 285 nm for 16 at 60s intervals (FIG. 10B-C).
# 16 (15 μM) DHT from methanol stock solutions was added to PBS containing 100 μM EDTA. After 10s, APEX2 (SEQ ID NO:1) (275 nM) or HRP (15 nM) was dosed in and oxidation was monitored at 285 nm at 10s intervals (FIG. 10D)
# SOD (1 μM) was added to PBS containing 100 μM EDTA. 15 or 16 (60 μM) was added from methanol stock solutions. After 10s, APEX2 (SEQ ID NO:1) or F41A APEX2 (275 nM) was dosed in and oxidation was monitored at 325 nm for 15 and 285 nm for 16 at 60s intervals.
# The initial rate of oxidation was calculated from the first 100 seconds after APEX2 (SEQ ID NO:1) or F41A APEX2 was added ([…]). In the assays where SOD was added, SOD (1 μM) was added to PBS containing 100 μM EDTA and 15 or 16 was dosed in. 10 seconds later, APEX2 (SEQ ID NO:1) or F41A APEX2 ([…]) was added and the rate of oxidation was calculated from the first 100 seconds after APEX2 (SEQ ID NO:1) or F41A APEX2 ([…]) addition. The initial rate of oxidation was adjusted to background oxidation of DHT in PBS with 100 μM EDTA. Kinetic parameters (Table 2) were determined using GraphPad's Prism 6 software from the data presented below (Table 3-4).
# [1] = Electrochemical oxidation / cyclic voltammetry; assay type: physicochemical; conditions: phosphate buffer pH 7.0, vs Ag/AgCl reference
# Description: Compound 3a has a maximum in the UV-vis spectrum at 292 nm, and 4a has a maximum at 325 nm with a less intense peak at 525 nm (FIG. 2). […] This isosbestic point was also conserved in the photocatalytic and enzymatic (FIG. 2) oxidations of 3a described below, and the spectroscopic changes at 292 and 325 nm were routinely used for monitoring reaction progress.
# All electrochemistry was performed using a CHI-620D potentiostat/galvanostat. Cyclic voltammetry was performed using a standard three-electrode configuration. CV scans were recorded for quiescent solutions using a platinum disk working electrode (2.0 mm diameter CH Instruments) and a platinum wire auxiliary electrode. All potentials were measured against a Ag/AgCl reference electrode (CH Instruments, 1 M KCl). CV and DPV experiments were performed in a nitrogen saturated 0.1 M potassium phosphate (KH2PO4) buffered solution at pH 7.0. The concentration of the analyte was 1.0 mM for all experiments.
compound,measurement,setting,value
O=C(O)CCCC(=O)Nc1ccc(C2=NNC(c3ccccn3)=NN2)nc1 [compound 15],rate of catalysis by APEX2 slower than by HRP,APEX2 (SEQ ID NO:1); APEX2 versus HRP (FIG. 10D),approximately 100 ×
same,Initial rate of oxidation of DHT by APEX2 (SEQ ID NO: 1),APEX2 (SEQ ID NO:1); DHT 5 μM,0.903 +/− 0.026 ×10^−8 M/s
same,Initial rate of oxidation of DHT by APEX2 (SEQ ID NO: 1) + SOD,APEX2 (SEQ ID NO:1); DHT 6 μM,1.104 +/− 0.028 ×10^−8 M/s
same,Initial rate of oxidation of DHT by APEX2 (SEQ ID NO: 1),APEX2 (SEQ ID NO:1); DHT 10 μM,1.286 +/− 0.141 ×10^−8 M/s
same,Initial rate of oxidation of DHT by APEX2 (SEQ ID NO: 1) + SOD,APEX2 (SEQ ID NO:1); DHT 12 μM,1.831 +/− 0.169 ×10^−8 M/s
same,Initial rate of oxidation of DHT by APEX2 (SEQ ID NO: 1),APEX2 (SEQ ID NO:1); DHT 15 μM,1.442 +/− 0.298 ×10^−8 M/s
same,Initial rate of oxidation of DHT by APEX2 (SEQ ID NO: 1) + SOD,APEX2 (SEQ ID NO:1); DHT 15 μM,1.765 +/− 0.172 ×10^−8 M/s
same,Initial rate of oxidation of DHT by APEX2 (SEQ ID NO: 1),APEX2 (SEQ ID NO:1); DHT 20 μM,1.872 +/− 0.028 ×10^−8 M/s
same,Initial rate of oxidation of DHT by APEX2 (SEQ ID NO: 1) + SOD,APEX2 (SEQ ID NO:1); DHT 20 μM,2.166 +/− 0.201 ×10^−8 M/s
same,Initial rate of oxidation of DHT by APEX2 (SEQ ID NO: 1),APEX2 (SEQ ID NO:1); DHT 25 μM,1.628 +/− 0.133 ×10^−8 M/s
same,Initial rate of oxidation of DHT by APEX2 (SEQ ID NO: 1) + SOD,APEX2 (SEQ ID NO:1); DHT 25 μM,2.937 +/− 0.487 ×10^−8 M/s
same,Initial rate of oxidation of DHT by APEX2 (SEQ ID NO: 1),APEX2 (SEQ ID NO:1); DHT 30 μM,1.878 +/− 0.055 ×10^−8 M/s
same,Initial rate of oxidation of DHT by APEX2 (SEQ ID NO: 1) + SOD,APEX2 (SEQ ID NO:1); DHT 30 μM,2.418 +/− 0.038 ×10^−8 M/s
same,Initial rate of oxidation of DHT by APEX2 (SEQ ID NO: 1),APEX2 (SEQ ID NO:1); DHT 40 μM,2.305 +/− 0.101 ×10^−8 M/s
same,Initial rate of oxidation of DHT by APEX2 (SEQ ID NO: 1) + SOD,APEX2 (SEQ ID NO:1); DHT 40 μM,3.230 +/− 0.348 ×10^−8 M/s
same,Initial rate of oxidation of DHT by APEX2 (SEQ ID NO: 1),APEX2 (SEQ ID NO:1); DHT 50 μM,2.445 +/− 0.303 ×10^−8 M/s
same,Initial rate of oxidation of DHT by APEX2 (SEQ ID NO: 1) + SOD,APEX2 (SEQ ID NO:1); DHT 50 μM,3.305 +/− 0.436 ×10^−8 M/s
same,Initial rate of oxidation of DHT by APEX2 (SEQ ID NO: 1),APEX2 (SEQ ID NO:1); DHT 60 μM,2.603 +/− 0.306 ×10^−8 M/s
same,Initial rate of oxidation of DHT by APEX2 (SEQ ID NO: 1) + SOD,APEX2 (SEQ ID NO:1); DHT 60 μM,4.169 +/− 0.242 ×10^−8 M/s
same,Initial rate of oxidation of DHT by APEX2 (SEQ ID NO: 1),APEX2 (SEQ ID NO:1); DHT 70 μM,3.197 +/− 0.025 ×10^−8 M/s
same,Initial rate of oxidation of DHT by APEX2 (SEQ ID NO: 1),APEX2 (SEQ ID NO:1); DHT 75 μM,3.460 +/− 0.492 ×10^−8 M/s
same,Initial rate of oxidation of DHT by APEX2 (SEQ ID NO: 1) + SOD,APEX2 (SEQ ID NO:1); DHT 75 μM,4.196 +/− 0.444 ×10^−8 M/s
same,Initial rate of oxidation of DHT by APEX2 (SEQ ID NO: 1),APEX2 (SEQ ID NO:1); DHT 85 μM,3.978 +/− 0.119 ×10^−8 M/s
same,Initial rate of oxidation of DHT by APEX2 (SEQ ID NO: 1) + SOD,APEX2 (SEQ ID NO:1); DHT 85 μM,4.939 +/− 0.202 ×10^−8 M/s
"O=C(O)CCC(=O)Nc1ccc(C2=NNC(c3ccccn3)=NN2)nc1 [3a, 4-oxo-4-((6-(6-(pyridin-2-yl)-1,4-dihydro-1,2,4,5-tetrazin-3-yl)pyridin-3-yl)amino)butanoic Acid]",voltammogram peak (electrochemical oxidation),[1],0.02 V

# Reference: US11485987B2, “Methods for inducing bioorthogonal reactivity” (University of Delaware, priority 2015, dated 2022)
